Patent publication US10953027B2, “Active agents and methods of their use for the treatment of metabolic disorders and nonalcoholic fatty liver disease” (Flagship Pioneering Innovations V, Inc., priority 2018, dated 2021)

How the values were obtained:
Assay type in all cases: in vitro ADME
[1] = Assay 3. Fecal Incubation Stability; conditions: 1 or 10 μM, human fecal slurry, anaerobic
Description: Assay 3. Fecal Incubation Stability. This assay was used to assess the stability of an acylated active agent in a large intestine. All experiments were performed in an anaerobic chamber containing 90% nitrogen, 5% hydrogen and 5% carbon dioxide. Human fecal matter in a slurry (15% WV) is added to 96 well plates containing YCFA media or other suitable media (1.6 mL). Compounds were added to each individual well to reach a final analyte concentration of 1 or 10 μM, and the material was mixed by pipetting. At set time points a sample was removed, quenched with acetonitrile, and analyzed by LC/MS.

[2] = Assay 2. Stability in Simulated Intestinal Fluid (SIF); conditions: 1 μM, 37° C., SIF pH 6.7 with pancreatin
Summary of the method: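 Acylated compounds at 1 μM (from 1 mM DMSO stock) in fresh SIF: FaSSIF with pancreatin in pH 6.7 phosphate buffer, agitated at 37 °C. Aliquots from T0 onward quenched with 1 volume acetonitrile; LC/MS gives degradation rates.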

[3] = Assay 1. Stability in Simulated Gastric Fluid (SGF); conditions: 1 μM, 37° C., SGF pH 1.6 with pepsin
Summary of the method: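 Acylated compounds at a final 1 μM (diluted from 1 mM DMSO stock) were incubated at 37 °C in SGF of pH 1.6 NaCl buffer with FaSSIF powder and 0.1 mg/mL pepsin. Aliquots were quenched with acetonitrile at T0 and regular intervals, and degradation rates were determined by LC/MS.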

Structure (SMILES) | Assay 3 (% Remaining at 24 h) [1] | Assay 2 (SIF) (% @ Remaining 4 hours) [2] | Assay 1 (SGF) (% Remaining @ 1 hours) [3]
CCC(=O)O[C@@H]1[C@@H](OC(=O)CC)[C@H](OC(=O)Cc2c[nH]c3ccccc23)OC[C@@H]1OC(=O)CC [Compound 135, (3S,4S,5R,6S)-6-{[2-(1H-indol-3-yl)acetyl]oxy}-4,5-bis(propanoyloxy)oxan-3-yl Propanoate] | A (A: <25% of the tested compound remaining) | A (A: <25% of the tested compound remaining) | C (C: >75% of the tested compound remaining)
CCC(=O)O[C@@H]1[C@@H](OC(=O)CC)[C@@H](OC(=O)/C=C/c2c[nH]c3ccccc23)OC[C@H]1OC(=O)CC [Compound 125, (2R,3R,4S,5R)-3,4,5-tris(propanoyloxy)oxan-2-yl (2E)-3-(1H-indol-3-yl)prop-2-enoate] | A (A: <25% of the tested compound remaining) | A (A: <25% of the tested compound remaining) | C (C: >75% of the tested compound remaining)
C[C@@H]1OC(O)[C@@H](OC(=O)CCc2c[nH]c3ccccc23)[C@H](OC(=O)CCc2c[nH]c3ccccc23)[C@@H]1OC(=O)CCc1c[nH]c2ccccc12 (stereo partly drawn) [Compound 95, (2S,3R,4R,5S)-6-hydroxy-4,5-bis({[3-(1H-indol-3-yl)propanoyl]oxy})-2-methyloxan-3-yl 3-(1H-indol-3-yl)propanoate] | C (C: >75% of the tested compound remaining) | A (A: <25% of the tested compound remaining) | C (C: >75% of the tested compound remaining)
CCC(=O)O[C@@H]1[C@@H](OC(=O)CC)[C@@H](OC(=O)CCc2c[nH]c3ccccc23)OC[C@@H]1OC(=O)CC [Compound 158, (2R,3R,4S,5S)-3,4,5-tris(propanoyloxy)oxan-2-yl 3-(1H-indol-3-yl)propanoate] | A (A: <25% of the tested compound remaining) | A (A: <25% of the tested compound remaining) | C (C: >75% of the tested compound remaining)
CCC(=O)OC[C@H]1O[C@H](OC(=O)/C=C/c2c[nH]c3ccccc23)[C@H](OC(=O)CC)[C@@H](OC(=O)CC)[C@@H]1OC(=O)CC [Compound 131, (2R,3R,4S,5R,6R)-3,4,5-tris(propanoyloxy)-6-[(propanoyloxy)methyl]oxan-2-yl (2E)-3-(1H-indol-3-yl)prop-2-enoate] | A (A: <25% of the tested compound remaining) | – | B (B: 25-75% of the tested compound remaining)
CCC(=O)Oc1cc(OC(=O)CC)c2c(c1)O[C@H](c1ccc(OC(=O)CC)c(OC(=O)CC)c1)[C@H](OC(=O)CC)C2 [Compound 236, (2R,3R)-2-[3,4-bis(propanoyloxy)phenyl]-5,7-bis(propanoyloxy)-3,4-dihydro-2H-1-benzopyran-3-yl Propanoate] | A (A: <25% of the tested compound remaining) | A (A: <25% of the tested compound remaining) | B (B: 25-75% of the tested compound remaining)
CCCC(=O)O[C@@H]1[C@@H](OC(=O)CCC)[C@H](C)O[C@@H](OC(=O)CCc2c[nH]c3ccccc23)[C@@H]1OC(=O)CCC [Compound 116, (2S,3R,4R,5S,6S)-4,5-bis(butanoyloxy)-2-{[3-(1H-indol-3-yl)propanoyl]oxy}-6-methyloxan-3-yl Butanoate] | A (A: <25% of the tested compound remaining) | A (A: <25% of the tested compound remaining) | C (C: >75% of the tested compound remaining)
CCC(=O)O[C@@H]1[C@@H](OC(=O)CC)[C@H](C)O[C@@H](OC(=O)/C=C/c2c[nH]c3ccccc23)[C@@H]1OC(=O)CC [Compound 134, (2S,3R,4R,5S,6S)-6-methyl-3,4,5-tris(propanoyloxy)oxan-2-yl (2E)-3-(1H-indol-3-yl)prop-2-enoate] | A (A: <25% of the tested compound remaining) | B (B: 25-75% of the tested compound remaining) | C (C: >75% of the tested compound remaining)
O=C(CCc1c[nH]c2ccccc12)O[C@H]1OC[C@H](OC(=O)CCc2c[nH]c3ccccc23)[C@H](OC(=O)CCc2c[nH]c3ccccc23)[C@H]1OC(=O)CCc1c[nH]c2ccccc12 [Compound 181, (2R,3R,4S,5S)-3,4,5-tris({[3-(1H-indol-3-yl)propanoyl]oxy})oxan-2-yl 3-(1H-indol-3-yl)propanoate] | A (A: <25% of the tested compound remaining) | A (A: <25% of the tested compound remaining) | –
CCCC(=O)O[C@@H]1[C@@H](OC(=O)CCC)[C@H](C)O[C@H](OC(=O)CCc2c[nH]c3ccccc23)[C@@H]1OC(=O)CCC [Compound 119, (2R,3R,4R,5S,6S)-4,5-bis(butanoyloxy)-2-{[3-(1H-indol-3-yl)propanoyl]oxy}-6-methyloxan-3-yl Butanoate] | A (A: <25% of the tested compound remaining) | – | B (B: 25-75% of the tested compound remaining)
O=C(CCc1c[nH]c2ccccc12)Oc1ccc2c(c1)oc(=O)c1cc(OC(=O)CCc3c[nH]c4ccccc34)c(OC(=O)CCc3c[nH]c4ccccc34)cc12 [Compound 246, 8,9-bis({[3-(1H-indol-3-yl)propanoyl]oxy})-6-oxo-6H-benzo[c]chromen-3-yl 3-(1H-indol-3-yl)propanoate] | B (B: 25-75% of the tested compound remaining) | B (B: 25-75% of the tested compound remaining) | –
CCCC(=O)OC[C@H]1O[C@H](OC)[C@H](OC(=O)CCC)[C@@H](OC(=O)CCC)[C@H]1OC(=O)CCC [Compound 89, [(2R,3S,4S,5R,6S)-3,4,5-tris(butanoyloxy)-6-methoxyoxan-2-yl]methyl Butanoate] | A (A: <25% of the tested compound remaining) | A (A: <25% of the tested compound remaining) | –
CCCC(=O)O[C@@H]1[C@@H](OC(=O)CCC)[C@H](OC)OC[C@H]1OC(=O)CCC [Compound 121, (2R,3R,4S,5R)-4,5-bis(butanoyloxy)-2-methoxyoxan-3-yl Butanoate] | A (A: <25% of the tested compound remaining) | A (A: <25% of the tested compound remaining) | –
CCCC(=O)O[C@@H]1[C@@H](OC(=O)CCC)[C@H](OC(=O)CCc2c[nH]c3ccccc23)OC[C@H]1OC(=O)CCC [Compound 129, (2S,3R,4S,5R)-4,5-bis(butanoyloxy)-2-{[3-(1H-indol-3-yl)propanoyl]oxy}oxan-3-yl Butanoate] | A (A: <25% of the tested compound remaining) | – | B (B: 25-75% of the tested compound remaining)
CCCC(=O)O[C@H]1[C@H](OC(=O)CCC)[C@@H](OC(=O)CCc2c[nH]c3ccccc23)O[C@@H](C)[C@H]1OC(=O)CCC [Compound 120, (2R,3S,4R,5R,6S)-4,5-bis(butanoyloxy)-2-{[3-(1H-indol-3-yl)propanoyl]oxy}-6-methyloxan-3-yl Butanoate] | A (A: <25% of the tested compound remaining) | – | B (B: 25-75% of the tested compound remaining)
CCCC(=O)O[C@H]1[C@H](OC(=O)CCC)COC(O)[C@@H]1OC(=O)CCC (stereo partly drawn) [Compound 190, (3R,4S,5R)-4,5-bis(butanoyloxy)-2-hydroxyoxan-3-yl Butanoate] | A (A: <25% of the tested compound remaining) | A (A: <25% of the tested compound remaining) | –
CCC(=O)O[C@@H]1[C@@H](OC(=O)CC)[C@H](OC(=O)/C=C/c2c[nH]c3ccccc23)OC[C@@H]1OC(=O)CC [Compound 132, (2S,3R,4S,5S)-3,4,5-tris(propanoyloxy)oxan-2-yl (2E)-3-(1H-indol-3-yl)prop-2-enoate] | A (A: <25% of the tested compound remaining) | – | B (B: 25-75% of the tested compound remaining)
CCC(=O)OC[C@H]1O[C@@H](OC)[C@H](OC(=O)CC)[C@@H](OC(=O)CC)[C@H]1OC(=O)CC [Compound 94, [(2R,3S,4S,5R,6R)-6-methoxy-3,4,5-tris(propanoyloxy)oxan-2-yl]methyl Propanoate] | A (A: <25% of the tested compound remaining) | A (A: <25% of the tested compound remaining) | –
O=C(CCc1c[nH]c2ccccc12)O[C@@H]1O[C@H](C(=O)O)[C@@H](OC(=O)CCc2c[nH]c3ccccc23)[C@H](OC(=O)CCc2c[nH]c3ccccc23)[C@H]1OC(=O)CCc1c[nH]c2ccccc12 [Compound 82, (2S,3S,4S,5R,6S)-3,4,5,6-tetrakis({[3-(1H-indol-3-yl)propanoyl]oxy})oxane-2-carboxylic Acid] | A (A: <25% of the tested compound remaining) | A (A: <25% of the tested compound remaining) | –
CCC(=O)OC[C@H]1O[C@@H](OC)[C@H](OC(=O)CC)[C@@H](OC(=O)CC)[C@@H]1OC(=O)CC [Compound 92, [(2R,3R,4S,5R,6R)-6-methoxy-3,4,5-tris(propanoyloxy)oxan-2-yl]methyl Propanoate] | A (A: <25% of the tested compound remaining) | A (A: <25% of the tested compound remaining) | –
